Laboratory results reported in ChEMBL document CHEMBL1141243, “Antioxidant and cytotoxic activities of xanthones from Cudrania tricuspidata” (Bioorg Med Chem Lett, 2005).
Active and inactive are the calls of the source. The calls are words filed in the database; no cut-off is given here.

Experiments:
[1] = test system: HT-29; test: Cytotoxicity against human cancer HT29 cell line by MTT assay; format: functional; conditions: read-out: LD50 (the source's name)
[2] = test system: Radical scavenging activity; test: DPPH radical scavenging activity of Cudriana tricuspidata extracts; format: functional, Maclura tricuspidata
[3] = test system: SK-OV-3; test: Cytotoxicity against human cancer SKOV3 cell line by MTT assay; format: functional; conditions: read-out: LD50 (the source's name)
[4] = test system: AGS; test: Cytotoxicity against human cancer AGS cell line by MTT assay; format: functional; conditions: read-out: LD50 (the source's name)
[5] = test system: A549; test: Cytotoxicity against human cancer A549 cell line by MTT assay; format: functional; conditions: read-out: LD50 (the source's name)
[6] = test system: HL-60; test: Cytotoxic activity in HL60 by DNA fragmentation assay; format: functional, cell-based; conditions: Homo sapiens
[7] = test system: Radical scavenging activity; test: Hydroxyl radical scavenging activity of Cudriana tricuspidata extracts; format: functional
[8] = test system: Radical scavenging activity; test: Superoxide radical scavenging activity of Cudriana tricuspidata extracts; format: functional, Maclura tricuspidata
[9] = test system: HL-60; test: Cytotoxicity against human cancer HL60 cell line by MTT assay; format: functional; conditions: read-out: LD50 (the source's name)

In the case of C=CC(C)(C)c1c(O)cc(O)c2c(=O)c3cc(O)c4c(c3oc12)C=CC(C)(C)O4, the CC50 [1] is reported as 46.3 µM, the IC50 [2] is reported as greater than 200 µM and the CC50 [3] is reported as 70.4 µM. For the same compound, the CC50 [4] was 44.7 µM, the CC50 [5] was 61.9 µM and the Activity [6] was “Active”. It also gave an IC50 [7] of 55.5 µM, an IC50 [8] of 64.5 µM and a CC50 [9] of 35.9 µM.

C=CC(C)(C)c1c(O)cc(O)c2c(=O)c3c(CC=C(C)C)c(O)c(O)cc3oc12 [CUDRATRICUSXANTHONE A] showed a CC50 [1] of 41.4 µM, an IC50 [2] of 21.3 µM and a CC50 [3] of 43.2 µM. The CC50 [4] was 32.8 µM, the CC50 [5] was 45.8 µM and the Activity [6] was “Active”. For the same compound, the IC50 [7] was 21.2 µM, the IC50 [8] was 51 µM and the CC50 [9] was 32.8 µM.

C=CC(C)(C)c1c(O)cc(O)c2c(=O)c3c(CC=C(C)C)c(OC)c(O)cc3oc12 [CUDRAXANTHONE C] showed a CC50 [1] of 50.7 µM, an IC50 [2] greater than 200 µM and a CC50 [3] of 73.5 µM. The CC50 [4] was 49.5 µM, the CC50 [5] was 61.7 µM and the Activity [6] was “Active”. For the same compound, the IC50 [7] was 24.3 µM, the IC50 [8] was 85.1 µM and the CC50 [9] was 40.8 µM.

For C=CC(C)(C)c1c(OC)cc(O)c2c(=O)c3c(CC=C(C)C)c(O)c(O)cc3oc12 [CUDRAXANTHONE D], the CC50 [1] was 20.7 µM, the IC50 [2] was 17.4 µM and the CC50 [3] was 23.8 µM. The CC50 [4] was 4.7 µM, the CC50 [5] was 16.3 µM and the Activity [6] was “Active”. The IC50 [7] was 25.2 µM, the IC50 [8] was 92.8 µM and the CC50 [9] was 6.2 µM.

C=CC(C)(C)c1c(O)cc2oc3c(CC=C(C)C)c(O)c(O)cc3c(=O)c2c1O [CUDRAXANTHONE L] gave a CC50 [1] of 11.4 µM, an IC50 [2] of 13.7 µM and a CC50 [3] of 38 µM. For the same compound, the CC50 [4] was 3.9 µM, the CC50 [5] was 33.5 µM and the Activity [6] was “Active”. For the same compound, the IC50 [7] was 50.3 µM, the IC50 [8] was 23.6 µM and the CC50 [9] was 8.6 µM.

Compound CC(C)=CCc1c(O)c(O)cc2c(=O)c3c(O)c4c(cc3oc12)OC(C)C4(C)C (stereo not given) [CUDRAXANTHONE M] has a CC50 [1] of 12.1 µM, an IC50 [2] of 10.4 µM and a CC50 [3] of 14.6 µM. The CC50 [4] was 4.1 µM, the CC50 [5] was 11.8 µM and the Activity [6] was “Active”. It also gave an IC50 [7] of 42.6 µM, an IC50 [8] of 26 µM and a CC50 [9] of 8.2 µM.

COc1cccc2c1C(=O)c1c(O)c3c(c(O)c1C2=O)C[C@@](O)(C(=O)CO)C[C@@H]3O[C@H]1C[C@H](N)[C@H](O)[C@H](C)O1 [DOXORUBICIN] gave a CC50 [1] of 1.8 µM, a CC50 [3] of 14.2 µM and a CC50 [4] of 1.2 µM. The CC50 [5] was 1.3 µM and the CC50 [9] was 1.1 µM.

For C=CC(C)(C)c1c(OC)cc(O)c2c(=O)c3ccc(O)c(O)c3oc12 [ISOCUDRANIAXANTHONE B], the CC50 [1] was 65 µM, the IC50 [2] was 31.8 µM and the CC50 [3] was 71.3 µM. For the same compound, the CC50 [4] was 43.9 µM, the CC50 [5] was 57.8 µM and the Activity [6] was “Active”. It also gave an IC50 [7] of 101 µM, an IC50 [8] of 29.5 µM and a CC50 [9] of 45.2 µM.

C=CC(C)(C)c1c(O)c(CC=C(C)C)c2oc3cc(O)c(O)cc3c(=O)c2c1O [MACLURAXANTHONE B] gave a CC50 [1] of 28 µM, an IC50 [2] of 15.4 µM and a CC50 [3] of 23.1 µM. The CC50 [4] was 15.2 µM, the CC50 [5] was 25.8 µM and the Activity [6] was “Active”. The IC50 [7] was 74.1 µM, the IC50 [8] was 47.8 µM and the CC50 [9] was 29.5 µM.

With Cc1c(C)c2c(c(C)c1O)CCC(C)(C(=O)O)O2 (stereo not given) [TROLOX] the IC50 [2] was 10.6 µM, the IC50 [7] was 48.2 µM and the IC50 [8] was 33.6 µM.
